Test [1] concerns thyroid cancer cell lines (SW1736, T2, TL3, BHP2-7). Description: MTT cellular proliferation assay, responsive thyroid cancer cell lines. Format: cell-based. Particulars: Homo sapiens, SW-1736, 72 h, read-out: IC50 of proliferation. (Tetrazolium assays rely on reduction of a dye to a coloured formazan, in cell work by metabolically active cells.)
Test [2] relates to T2 cells. Description: Apoptosis assay. Format: cell-based, human. As to conditions: 10 μM, 24 hours, diluent control 11%.
For test [3], the system named is TL3 cells. Description: MTT cellular proliferation assay, TL3. Format: cell-based. Particulars: Homo sapiens; for IC50: 72 h, read-out: Growth inhibition (IC50).
Test [4] concerns MDA-MB-231 cells. Description: MTT cellular proliferation assay, MDA-MB-231. Format: cell-based. As to conditions: Homo sapiens, MDA-MB-231, 72 h, read-out: Growth inhibition (IC50).
The target of test [5] is T1, c-MET (Homo sapiens, UniProt P08581). Particulars: read-out: p-MET inhibition (IC50); HT-29; Report; cited from earlier work.
Test [6] deals with SW1736 cells. Description: Apoptosis assay. Format: cell-based, human. As to conditions: 10 μM, 24 hours, diluent control 10%.
The target of test [7] is T1, c-MET. Description: HGF induced c-MET phosphorylation. Format: cell-based.
Test [8] has as its target c-MET. Particulars: read-out: Ki value, c-MET; biochemical analysis; cited from earlier work.
Test [9] concerns p-AKT, p-STAT3, p-ERK, p-4E-BP1. Description: c-MET downstream signaling. Format: cell-based, human. As to conditions: SW1736 and TL3; for levels of p-STAT3 and p-AKT / phosphorylation of ERK and 4E-BP1: 0.1, 1.0, and 10 μM.
Test [10] concerns the target T1, c-MET. As to conditions: read-out: p-MET inhibition (IC50); MDA-MB-231; Report; cited from earlier work.
Test [11] has as its system TL3 cells. Description: Cell cycle analysis. As to conditions: 24 hour, control 2%. Format: cell-based, human.
For test [12], the system named is TL3 cells. Description: Apoptosis assay. Format: cell-based, human. As to conditions: 10 μM, 24 hours, diluent control 10%.
Test [13] deals with SW1736 cells. Description: Cell cycle analysis. Format: cell-based, human. As to conditions: 24 hour, diluent control 9%.
Test [14] has as its system HT29 cells. Description: MTT cellular proliferation assay, HT29. Format: cell-based. As to conditions: Homo sapiens, HT-29, 72 h, read-out: Growth inhibition (IC50).
The target in test [15] is T1, c-MET. Description: HGF induced c-MET phosphorylation. Format: cell-based. The source holds these as a separate data set.
Test [16] has as its target T1, c-MET. Description: HGF induced c-MET phosphorylation. Format: cell-based. This is another data set of the same source.
Test [17] deals with T2 cells. Description: Cell cycle analysis. Format: cell-based, human. As to conditions: 24 hour, control 3%.
Test [18] addresses T1, c-MET. Description: HGF induced c-MET phosphorylation. Format: cell-based. This is another data set of the same source.
The target of test [19] is T1, c-MET. As to conditions: 10μM; SW1736 and TL3; HGF 20 ng/ml, 10 minutes.
For test [20], the system named is PTC cell lines (BHP, B-CPAP and TPC-1). As to conditions: cited from earlier work.
Test [21] has as its system SW1736 cells. Description: MTT cellular proliferation assay, SW1736. Format: cell-based. As to conditions: Homo sapiens, SW-1736, read-out: inhibition of cell growth.
Test [22] deals with SW1736 human anaplastic thyroid tumor xenografts. Description: Murine xenograft model. Format: in vivo, nu/nu athymic mice.

Usually Ki stands for a dissociation constant, usually derived from enzyme kinetics or from competition with a known ligand. In general, inhibition refers to the relative decrease from the control value, in per cent.

The structures appear in SMILES notation. Read-outs that look alike come from different tables or passages of the source. Where only a bound is given, the exact number is not on record here.

T1 sequence (P08581 25-1390): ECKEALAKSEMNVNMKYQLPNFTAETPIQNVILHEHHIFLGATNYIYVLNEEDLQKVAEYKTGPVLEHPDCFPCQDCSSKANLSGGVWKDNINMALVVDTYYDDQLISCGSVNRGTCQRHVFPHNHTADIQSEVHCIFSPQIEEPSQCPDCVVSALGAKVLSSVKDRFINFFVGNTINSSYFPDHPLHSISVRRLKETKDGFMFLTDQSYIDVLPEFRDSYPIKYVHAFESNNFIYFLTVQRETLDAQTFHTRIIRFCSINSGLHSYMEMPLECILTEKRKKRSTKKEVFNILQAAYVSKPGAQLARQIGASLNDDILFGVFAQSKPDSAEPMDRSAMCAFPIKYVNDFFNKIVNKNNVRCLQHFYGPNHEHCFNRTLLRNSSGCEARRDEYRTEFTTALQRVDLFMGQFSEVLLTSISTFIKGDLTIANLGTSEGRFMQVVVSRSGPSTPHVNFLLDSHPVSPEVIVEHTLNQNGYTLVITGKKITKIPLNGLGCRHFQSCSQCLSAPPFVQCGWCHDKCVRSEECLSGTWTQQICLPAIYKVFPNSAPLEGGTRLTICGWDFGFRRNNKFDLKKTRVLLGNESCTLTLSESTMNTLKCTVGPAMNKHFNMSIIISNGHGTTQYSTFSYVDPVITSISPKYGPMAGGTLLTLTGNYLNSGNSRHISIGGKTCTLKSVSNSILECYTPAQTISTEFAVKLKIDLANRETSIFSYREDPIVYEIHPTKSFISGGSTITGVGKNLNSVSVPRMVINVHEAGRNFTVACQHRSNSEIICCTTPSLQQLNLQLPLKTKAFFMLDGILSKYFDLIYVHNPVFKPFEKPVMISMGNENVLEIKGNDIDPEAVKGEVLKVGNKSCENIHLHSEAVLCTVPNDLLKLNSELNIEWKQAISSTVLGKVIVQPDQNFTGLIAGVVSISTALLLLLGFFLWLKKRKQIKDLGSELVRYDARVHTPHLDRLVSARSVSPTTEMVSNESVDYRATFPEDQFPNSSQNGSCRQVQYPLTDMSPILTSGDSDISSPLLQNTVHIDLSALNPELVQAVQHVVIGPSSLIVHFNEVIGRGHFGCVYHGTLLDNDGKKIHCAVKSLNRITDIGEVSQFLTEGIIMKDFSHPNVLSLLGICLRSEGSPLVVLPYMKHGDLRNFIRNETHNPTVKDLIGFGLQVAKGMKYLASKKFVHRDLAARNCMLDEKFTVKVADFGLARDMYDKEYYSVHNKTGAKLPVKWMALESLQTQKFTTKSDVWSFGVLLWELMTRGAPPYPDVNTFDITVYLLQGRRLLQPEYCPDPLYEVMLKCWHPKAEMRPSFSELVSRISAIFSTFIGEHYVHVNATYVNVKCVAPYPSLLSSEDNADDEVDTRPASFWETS

In the case of `O=C1NC(=O)[C@@H](c2cn3c4c(cccc24)CCC3)[C@@H]1c1c[nH]c2ccccc12` [Tivantinib], the IC50 in [1] is 100 to 1000 nM; in test [3], 330 nM; in [4], 650 nM; in [5], 100 to 300 nM; in test [7] it was above 1000 nM; in test [10] it was 100 to 300 nM. Further, the IC50 in test [14] is 540 nM; in test [15], around 1000 nM; in [16] it was above 1000 nM; in [18], around 1000 nM. The “apoptosis (% Annexin V positive cells)” value was 21% in test [2], 14% in test [6] and 20% in [12]. For the same compound, the Ki in [8] is 355 nM. The “levels of p-STAT3 and p-AKT” value in test [9] is “potently decreased”. Besides, in [9], the “phosphorylation of ERK and 4E-BP1” value is reported as “not significantly altered”. Moreover, the “cells in G2/M” value is on record as 23% in test [11] (1 μM) and 45% in [17] (1 μM). Besides, the “mean G2/M arrest (cells in G2/M)” value in test [13] (1 μM) turned out to be 57%.
On to `Cc1[nH]c(/C=C2\C(=O)Nc3ccc(S(=O)(=O)N(C)c4cccc(Cl)c4)cc32)c(C)c1C(=O)N1CCN(C)CC1` [SU11274], for which the “effect on p-MET” value in [19] is listed as “inhibited”. The “effect on p-AKT, p-STAT3” value in test [9] (10μM) was “inhibited”.
For `Cc1[nH]c(/C=C2\C(=O)Nc3ccc(S(=O)(=O)Cc4c(Cl)cccc4Cl)cc32)c(C)c1C(=O)N1CCC[C@@H]1CN1CCCC1` [PHA665752], the “in vitro growth of PTC cell lines” value in test [20] is given as “growth inhibited”.
With `C[C@@H](Oc1cc(-c2cnn(C3CCNCC3)c2)cnc1N)c1c(Cl)ccc(F)c1Cl` [Crizotinib], in test [21], the inhibition at 1 µM is below 50%. The IC50 in test [1] is 2000 to 3500 nM; in [3] it was 2600 nM; in test [4], 2800 nM; in [14], 2600 nM. The “apoptosis (% Annexin V positive cells)” value in test [2] stood at 19%; in [6], 15%; in test [12], 27%. Moreover, in test [22] (50 mg/kg daily oral gavage, day 50), the “decrease of mean tumor volume compared to vehicle group” value came out at 55.8%. In addition, the “Ki67 positivity in tumor tissue compared to vehicle” value in test [22] (50 mg/kg, day 50, immunohistochemistry) was “less”. Moreover, in test [22] (50 mg/kg, tumors dissected 4 hours after drug administration at day 50, western blotting), the “c-MET phosphorylation in tumor tissue compared to vehicle” value is reported as “less”. Moreover, in test [3] (read-out: inhibition of cell growth), the inhibition at 0.1 µM is below 20%. In addition, the “levels of p-STAT3 and p-AKT” value in test [9] is on record as “potently decreased”. In addition, in test [9], the “phosphorylation of ERK and 4E-BP1” value is given as “not significantly altered”. Also, the entries for the “cells in G2/M” value in test [11] (10 μM) and in test [17] (10 μM) were 48% and 26%, respectively. For the same compound, the “mean G2/M arrest (cells in G2/M)” value in [13] (10 μM) is 74%.

The values above are taken from publication PMC3947168 (Molecular cancer therapeutics, 2013).
